Data published in US3995044A, “Pyridine carboxylic acid amides for mycobacterium infections” (priority 1974, dated 1976).
Values after ≈ are worked out from the molar mass of the structure shown. Where two headings read alike, the source gives them in different places.

Key:
Assay in all cases: microbe, parasite or virus in culture
Assay type in all cases: cell-based
[1] = tested on: Mycobacterium tuberculosis INH-res.; settings: read-out: Minimum inhibitory concentration (on egg medium), resistant test strain INH-res.
[2] = tested on: Mycobacterium tuberculosis PAS-res.; settings: read-out: MIC, PAS-res.
[3] = tested on: Mycobacterium tuberculosis CS-res.; settings: read-out: MIC, CS-res.
[4] = tested on: Mycobacterium tuberculosis INH-res.; settings: read-out: MIC, INH-res.
[5] = tested on: Mycobacterium tuberculosis INH TSC ETH-res.; settings: read-out: MIC, INH TSC ETH-res.
[6] = tested on: Mycobacterium tuberculosis SM-res.; settings: read-out: MIC, SM-res.
[7] = tested on: Mycobacterium tuberculosis INH-TSC-res.; settings: read-out: Minimum inhibitory concentration (on egg medium), resistant test strain INH-TSC-res.

O=C(NCc1ccccn1)c1cc([N+](=O)[O-])cc([N+](=O)[O-])c1 [Example 1, N-(pyrid-2-ylmethyl)-3,5-dinitrobenzoic acid amide]
MIC [1]: 1 µg/mL (≈ 3.31 µM)
MIC [2]: 1.6 µg/mL (≈ 5.29 µM)
MIC [3]: 1.6 µg/mL (≈ 5.29 µM)
MIC [4]: 0.8 µg/mL (≈ 2.65 µM)
MIC [5]: 0.8 µg/mL (≈ 2.65 µM)
MIC [6]: 1.6 µg/mL (≈ 5.29 µM)
MIC [7]: 1 µg/mL (≈ 3.31 µM)

O=C(NCc1cccnc1)c1cc([N+](=O)[O-])cc([N+](=O)[O-])c1 [Example 12]
MIC [1]: 8 µg/mL (≈ 26.5 µM)
MIC [7]: 32 µg/mL (≈ 106 µM)

O=C(NCc1ccncc1)c1cc([N+](=O)[O-])cc([N+](=O)[O-])c1 [Example 13]
MIC [1]: 128 µg/mL (≈ 423 µM)
MIC [7]: 128 µg/mL (≈ 423 µM)

O=C(NCC1CCC=CO1)c1cc([N+](=O)[O-])cc([N+](=O)[O-])c1 (stereo not shown) [Example 22]
MIC [2]: 0.8 µg/mL (≈ 2.6 µM)
MIC [3]: 0.4 µg/mL (≈ 1.3 µM)
MIC [4]: 0.1 µg/mL (≈ 0.325 µM)
MIC [5]: 0.2 µg/mL (≈ 0.651 µM)
MIC [6]: 0.4 µg/mL (≈ 1.3 µM)

O=C(NCC1CCCO1)c1cc([N+](=O)[O-])cc([N+](=O)[O-])c1 (stereo not shown) [Example 20]
MIC [2]: 1.6 µg/mL (≈ 5.42 µM)
MIC [3]: 1.6 µg/mL (≈ 5.42 µM)
MIC [4]: 1.6 µg/mL (≈ 5.42 µM)
MIC [5]: 1.6 µg/mL (≈ 5.42 µM)
MIC [6]: 1.6 µg/mL (≈ 5.42 µM)

Cc1cccc(CNC(=O)c2cc([N+](=O)[O-])cc([N+](=O)[O-])c2)n1 [Example 14]
MIC [2]: 1.6 µg/mL (≈ 5.06 µM)
MIC [3]: 1.6 µg/mL (≈ 5.06 µM)
MIC [4]: 0.8 µg/mL (≈ 2.53 µM)
MIC [5]: 0.8 µg/mL (≈ 2.53 µM)
MIC [6]: 1.6 µg/mL (≈ 5.06 µM)

O=C(NCc1ccc2ccccc2n1)c1cc([N+](=O)[O-])cc([N+](=O)[O-])c1 [Example 15]
MIC [1]: 1 µg/mL (≈ 2.84 µM)
MIC [2]: 0.4 µg/mL (≈ 1.14 µM)
MIC [3]: 0.2 µg/mL (≈ 0.568 µM)
MIC [4]: 0.1 µg/mL (≈ 0.284 µM)
MIC [5]: 0.05 µg/mL (≈ 0.142 µM)
MIC [6]: 0.1 µg/mL (≈ 0.284 µM)
MIC [7]: 1 µg/mL (≈ 2.84 µM)

O=C(NCCc1ccccn1)c1cc([N+](=O)[O-])cc([N+](=O)[O-])c1 [Example 10]
MIC [1]: 1 µg/mL (≈ 3.16 µM)
MIC [7]: 32 µg/mL (≈ 101 µM)

CC(NC(=O)c1cc([N+](=O)[O-])cc([N+](=O)[O-])c1)c1ccccn1 (stereo not shown) [Example 29]
MIC [1]: 2 µg/mL (≈ 6.32 µM)
MIC [2]: 1.6 µg/mL (≈ 5.06 µM)
MIC [3]: 1.6 µg/mL (≈ 5.06 µM)
MIC [4]: 1.6 µg/mL (≈ 5.06 µM)
MIC [5]: 0.8 µg/mL (≈ 2.53 µM)
MIC [6]: 0.8 µg/mL (≈ 2.53 µM)
MIC [7]: 2 µg/mL (≈ 6.32 µM)

O=C(NCc1cnc2ccccc2c1)c1cc([N+](=O)[O-])cc([N+](=O)[O-])c1 [Example 9]
MIC [1]: 2 µg/mL (≈ 5.68 µM)
MIC [2]: 0.4 µg/mL (≈ 1.14 µM)
MIC [3]: 0.2 µg/mL (≈ 0.568 µM)
MIC [4]: 0.4 µg/mL (≈ 1.14 µM)
MIC [5]: 0.03 µg/mL (≈ 0.0852 µM)
MIC [6]: 0.2 µg/mL (≈ 0.568 µM)
MIC [7]: 2 µg/mL (≈ 5.68 µM)
